{"source": "paper PMC11574045", "about": "“A cofactor-induced repressive type of transcription factor condensation can be induced by synthetic peptides to suppress tumorigenesis” (The EMBO Journal, 2024)", "key": {"[1]": {"biological_target": "T1, TEAD4 (Homo sapiens, UniProt Q15561)", "T1 construct": "His; made in house; host or cells: Escherichia coli BL21(DE3)", "T1 sequence (Q15561 whole entry)": "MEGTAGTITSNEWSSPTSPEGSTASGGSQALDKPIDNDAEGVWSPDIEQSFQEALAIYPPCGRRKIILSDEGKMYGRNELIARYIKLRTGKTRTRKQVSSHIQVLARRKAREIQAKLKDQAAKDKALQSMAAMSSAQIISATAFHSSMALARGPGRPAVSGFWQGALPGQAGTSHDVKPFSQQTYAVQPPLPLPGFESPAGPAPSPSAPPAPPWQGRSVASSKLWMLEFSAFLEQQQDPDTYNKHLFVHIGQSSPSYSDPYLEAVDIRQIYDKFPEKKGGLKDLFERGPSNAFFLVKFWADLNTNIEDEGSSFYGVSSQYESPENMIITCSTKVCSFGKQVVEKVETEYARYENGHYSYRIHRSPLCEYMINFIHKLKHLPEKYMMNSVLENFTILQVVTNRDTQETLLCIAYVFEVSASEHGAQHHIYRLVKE", "assay": "FRAP of TEAD4 droplets formed from purified protein", "type": "biochemical", "settings": "purified TEAD4 protein treated with FAM-GLUP", "excerpt": "(A) Schematic of the strategy of the initial version of a linker peptide termed “glup”. […] The two TEAD4 molecules are colored cyan and blue, respectively. […] Monomer, dimer, and oligomer TEAD4 bands are labeled. (D) Schematic illustration of an optimized version of the linker peptide (referred to as GLUP). […] (F) Comparison of glup with GLUP. MW, molecular weight. […] The quantification graph represents the data collected from 10 images (n = 10). Data shown as means ± SD represent the representative results from two independent experiments. Significance was tested using one-way ANOVA, followed by the Tukey’s post-hoc test. *p < 0.05; ****p < 0.0001. NaCl (+), 20 mM; NaCl (++), 150 mM; NaCl (+++), 500 mM. Scale bar, 10 μm. […] For each photobleached spot, the fluorescence recovery curve was traced. The graph represents the data collected from 5 droplets (n = 5). t1/2: fluorescence recovery time; Rf: mobile fraction. […] The quantification graph represents the data collected from 9 cells (n = 9). […] The data were analyzed using one-way ANOVA, followed by the Tukey’s post-hoc test. n.s., no significance; ****p < 0.0001. […] Three images were gradually taken during pre-bleach, bleaching pulses, followed by fluorescence recovery as indicated on the graph (left). […] White circles indicated the bleaching condensates. t1/2: fluorescence recovery time; Rf: mobile fraction. […]"}, "[2]": {"system": "TEAD4^high or TEAD4^low GC patient-derived xenografts", "assay": "Patient-derived xenograft (PDX) model", "type": "in vivo, mouse", "parameters": "Tumor area, TEAD4High PDX / Tumor area, TEAD4Low PDX: unit not given beside the values", "protocol": "To establish PDX models, cell suspensions from GC patients were prepared as they were for PDOs. Subcutaneous implantation was performed on one flank of 5-week-old SCID mice weighing from 16 to 18 g and that were anesthetized using a isoflurane/oxygen mixture. Tumor growth was monitored by taking biweekly measurements of the implantation sites. Serial engraftments of each tumor were performed when the tumor reached a volume of ~500 mm^3. Subsequently, PDX tumors were enzymatically disassociated to form a single-cell suspension. To reduce murine cell populations, the cell suspension was then subjected to magnetic mouse cell depletion using a MACS mouse cell depletion kit (Miltenyi Biotech, Bergisch Gladbach, Germany). Following the cell depletion, all established PDX cell lines were maintained at steady rates of proliferation in RPMI 1640 medium. Additionally, a small piece of tumor tissue was obtained using a scalpel and fixed in 10% formalin-buffered saline for histological analysis."}, "[3]": {"biological_target": "T1, TEAD4", "assay": "In vitro DSS-cross-linking assay of TEAD4 oligomerization", "type": "biochemical", "settings": "5 µM protein, 30 min 30 °C, DSS 3 mM, SDS-PAGE", "protocol": "The deployed cross-linking reaction system contained 20 mM HEPES pH 7.5, 250 mM NaCl and 5 µM tested proteins with a total volume of 20 µl. This system was allowed to incubate for 30 min at 30 °C, and then combined with disuccinimidyl suberate (DSS) at a final concentration of 3 mM, and the mixtures were further incubated at 4 °C for 20 min. The cross-linking reaction was stopped by adding 1 M Tris HCl (pH 8.5) to the incubated mixture at 4 °C, and allowing the mixture to sit for 10 min, and then boiling it in 1×SDS loading buffer to provide samples for SDS-PAGE analysis."}, "[4]": {"biological_target": "T1, TEAD4", "assay": "In vitro LLPS (droplet formation) assay", "type": "biochemical", "protocol": "LLPS was induced at room temperature by diluting proteins and NaCl to specified concentrations (20, 150, 500 mM). After subsequent mixing, 10 μl of the reaction solution were gently transferred onto a 20 mm glass-bottomed dish (NEST, 801001) for differential interference contrast (DIC) imaging performed using a Zeiss LSM 880 confocal microscope equipped with a 20× water immersion objective lens. Unless otherwise indicated (e.g., in the figure legend), the final concentration of purified protein used for in vitro LLPS assays was 40 μM."}, "[5]": {"biological_target": "T1, TEAD4", "assay": "Dynamic light scattering (DLS) of TEAD4 oligomerization", "type": "biochemical", "settings": "after 10–20 min incubation with glup (10 μg/ml); TEAD4:glup molar ratio 10:1, 4 °C; DLS at 25 °C", "protocol": "In the case of glup, the mixtures were incubated at 4 °C for various periods of time as indicated in related figures. And then the mixtures were subjected to dynamic light scattering analysis at 25 °C. Scattered light was measured at a 90° angle at a wavelength of 658 nm."}, "[6]": {"settings": "5 mg/kg GLUP daily for 15 d, individual mice, n = 8 (source data Fig 8I)"}}, "note": "Several values for one entry are separate records, joined by “and”; a condition that tells them apart may be missing. Equal values may be shown once. Ends that are not written are not given here."}
{"substance": "RRVCVHFHFSLSLR-NH2 (C-terminus assumed) [glup]", "values": [{"measurement": "mobile fraction (FRAP)", "setting": "[1]", "result": "about 86%"}, {"measurement": "Tumor area, TEAD4High PDX", "setting": "[2]; [6]", "result": "0 and 0.0472 and 0.0501 and 0.0406 and 0.03159 and 0.05051"}, {"measurement": "Tumor area, TEAD4Low PDX", "setting": "[2]; [6]", "result": "0.09232 and 0.08466 and 0.08264 and 0.05322 and 0.1278 and 0.08635 and 0.1028 (2×)"}, {"measurement": "Tumor response, TEAD4^high PDX", "setting": "[2]; GLUP (i.v.) for 2 weeks", "result": "significantly regressed"}, {"measurement": "Tumor response, TEAD4^low PDX", "setting": "[2]; GLUP (i.v.) for 2 weeks", "result": "did not respond to the GLUP treatment"}, {"measurement": "TEAD4 oligomerization in DSS cross-linking", "setting": "[3]", "result": "induced TEAD4 oligomerization in a concentration-dependent manner"}, {"measurement": "TEAD4 oligomerization in DSS cross-linking", "setting": "[3]; listed as GLUP", "result": "strongly induced TEAD4 oligomerization"}, {"measurement": "Turbidity of TEAD4 solution after GLUP", "setting": "[4]; PEG solution, vials before and after GLUP", "result": "high turbidity in a PEG solution"}, {"measurement": "TEAD4 droplet formation", "setting": "[4]; mCherry-TEAD4 with FAM-GLUP 20, 40, 80 µM", "result": "strongly promoted TEAD4 droplet formation"}, {"measurement": "TEAD4 oligomerization by DLS", "setting": "[5]", "result": "formed dimers or oligomers of high molecular weight"}]}
